Results as given in ChEMBL document CHEMBL4052645, “Discovery of potent and efficacious pyrrolopyridazines as dual JAK1/3 inhibitors” (Bioorg Med Chem Lett, 2017).

Columns and labels:
[1] = target: Mitogen-activated protein kinase kinase kinase 19 (Homo sapiens) (UniProt Q56UN5); experiment: Inhibition of wild-type human partial length YSK4 (T1019 to H1328 residues) expressed in mammalian expression system assessed as residual activity at 50 nM by Kinomescan method relative to control
[2] = target: Mitogen-activated protein kinase kinase kinase 7 (Homo sapiens) (UniProt O43318); experiment: Inhibition of wild-type human partial length TAK1 (M1 to Q303 residues) expressed in mammalian expression system assessed as residual activity at 50 nM by Kinomescan method relative to control
[3] = target: MAP kinase-interacting serine/threonine-protein kinase 2 (Homo sapiens) (UniProt Q9HBH9); experiment: Inhibition of wild-type human partial length MNK2 (G63 to S388 residues) expressed in mammalian expression system assessed as residual activity at 50 nM by Kinomescan method relative to control
Sequence of MAP kinase-interacting serine/threonine-protein kinase 2 (Homo sapiens) (Q9HBH9 whole entry, looked up, the tested form may be a part): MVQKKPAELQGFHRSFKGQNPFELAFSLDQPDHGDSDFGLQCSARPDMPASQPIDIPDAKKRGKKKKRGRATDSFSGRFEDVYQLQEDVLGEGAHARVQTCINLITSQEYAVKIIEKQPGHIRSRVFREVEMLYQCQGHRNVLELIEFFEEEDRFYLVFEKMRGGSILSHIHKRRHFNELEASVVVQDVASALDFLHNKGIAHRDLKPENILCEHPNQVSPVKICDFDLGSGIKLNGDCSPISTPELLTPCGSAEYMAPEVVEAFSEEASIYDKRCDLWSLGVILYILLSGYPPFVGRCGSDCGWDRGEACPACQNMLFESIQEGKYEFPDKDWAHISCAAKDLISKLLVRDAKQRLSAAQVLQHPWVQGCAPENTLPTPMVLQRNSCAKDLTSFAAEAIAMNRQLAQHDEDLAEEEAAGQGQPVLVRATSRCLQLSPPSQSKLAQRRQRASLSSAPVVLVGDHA

[4] = target: Serine/threonine-protein kinase 33 (Homo sapiens) (UniProt Q9BYT3); experiment: Inhibition of wild-type human full length STK33 (M1 to L514 residues) expressed in bacterial expression system assessed as residual activity at 50 nM by Kinomescan method relative to control
[5] = target: Receptor tyrosine-protein kinase erbB-3 (Homo sapiens) (UniProt P21860); experiment: Inhibition of wild-type human partial length ERBB3 (G684 to A987 residues) expressed in mammalian expression system assessed as residual activity at 50 nM by Kinomescan method relative to control
[6] = target: 5'-AMP-activated protein kinase catalytic subunit alpha-1 (Homo sapiens) (UniProt Q13131); experiment: Inhibition of wild-type human partial length AMPK alpha1 (M1 to E306 residues) expressed in bacterial expression system assessed as residual activity at 50 nM by Kinomescan method relative to control
Sequence of 5'-AMP-activated protein kinase catalytic subunit alpha-1 (Homo sapiens) (Q13131 whole entry, looked up, the tested form may be a part): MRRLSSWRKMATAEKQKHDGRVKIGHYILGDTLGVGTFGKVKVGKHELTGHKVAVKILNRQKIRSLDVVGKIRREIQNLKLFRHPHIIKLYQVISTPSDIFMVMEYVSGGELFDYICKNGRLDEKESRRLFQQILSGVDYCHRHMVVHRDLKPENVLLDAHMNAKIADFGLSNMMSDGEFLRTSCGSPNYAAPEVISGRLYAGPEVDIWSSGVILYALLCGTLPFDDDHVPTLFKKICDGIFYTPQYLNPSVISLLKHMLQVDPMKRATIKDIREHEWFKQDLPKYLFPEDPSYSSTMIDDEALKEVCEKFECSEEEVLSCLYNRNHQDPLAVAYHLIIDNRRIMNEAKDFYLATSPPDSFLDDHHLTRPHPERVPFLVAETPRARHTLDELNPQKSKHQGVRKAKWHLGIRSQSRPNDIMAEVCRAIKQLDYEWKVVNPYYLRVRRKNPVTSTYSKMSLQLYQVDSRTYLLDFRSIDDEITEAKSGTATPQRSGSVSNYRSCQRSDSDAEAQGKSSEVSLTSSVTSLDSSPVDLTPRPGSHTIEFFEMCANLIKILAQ

[7] = target: Serine/threonine-protein kinase Nek5 (Homo sapiens) (UniProt Q6P3R8); experiment: Inhibition of wild-type human partial length NEK5 (M1 to M279 residues) expressed in bacterial expression system assessed as residual activity at 50 nM by Kinomescan method relative to control
Sequence of Serine/threonine-protein kinase Nek5 (Homo sapiens) (Q6P3R8 whole entry, the tested form may be a part): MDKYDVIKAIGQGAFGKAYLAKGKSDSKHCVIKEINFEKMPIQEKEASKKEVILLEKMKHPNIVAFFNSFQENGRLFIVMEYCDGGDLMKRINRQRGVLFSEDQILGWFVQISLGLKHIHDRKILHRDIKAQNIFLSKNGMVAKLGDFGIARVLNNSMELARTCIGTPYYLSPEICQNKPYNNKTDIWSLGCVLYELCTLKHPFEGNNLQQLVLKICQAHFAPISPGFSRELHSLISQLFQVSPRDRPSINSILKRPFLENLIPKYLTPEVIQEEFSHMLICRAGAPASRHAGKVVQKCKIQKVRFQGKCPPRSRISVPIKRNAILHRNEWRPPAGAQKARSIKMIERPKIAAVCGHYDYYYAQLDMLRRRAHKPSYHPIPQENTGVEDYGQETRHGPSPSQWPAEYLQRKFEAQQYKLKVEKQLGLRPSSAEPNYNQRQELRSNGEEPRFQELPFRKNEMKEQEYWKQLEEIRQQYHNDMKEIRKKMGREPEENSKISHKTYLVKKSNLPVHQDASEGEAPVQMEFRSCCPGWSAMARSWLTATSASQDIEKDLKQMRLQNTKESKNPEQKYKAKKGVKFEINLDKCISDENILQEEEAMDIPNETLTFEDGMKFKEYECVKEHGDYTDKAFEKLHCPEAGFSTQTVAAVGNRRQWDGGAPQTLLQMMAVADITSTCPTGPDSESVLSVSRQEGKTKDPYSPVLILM

[8] = target: Serine/threonine-protein kinase D3 (Homo sapiens) (UniProt O94806); experiment: Inhibition of wild-type human partial length PKD3 (S543 to E863 residues) expressed in bacterial expression system assessed as residual activity at 50 nM by Kinomescan method relative to control
[9] = target: Bone morphogenetic protein receptor type-2 (Homo sapiens) (UniProt Q13873); experiment: Inhibition of wild-type human partial length BMPR2 (R179 to Q526 residues) expressed in mammalian expression system assessed as residual activity at 50 nM by Kinomescan method relative to control
[10] = target: Dual specificity protein kinase CLK1 (Homo sapiens) (UniProt P49759); experiment: Inhibition of wild-type human full length CLK1 (M1 to I484 residues) expressed in bacterial expression system assessed as residual activity at 50 nM by Kinomescan method relative to control
[11] = target: Proto-oncogene tyrosine-protein kinase ROS (Homo sapiens) (UniProt P08922); experiment: Inhibition of wild-type human partial length ROS (A1921 to N2240 residues) expressed in bacterial expression system assessed as residual activity at 50 nM by Kinomescan method relative to control
[12] = target: Serine/threonine-protein kinase SIK2 (Homo sapiens) (UniProt Q9H0K1); experiment: Inhibition of wild-type human full length QIK (M1 to N926 residues) expressed in bacterial expression system assessed as residual activity at 50 nM by Kinomescan method relative to control
JAK2 = JAK2 (Homo sapiens, UniProt O60674); experiment: Inhibition of human JAK2 (A829 to G1132 residues) expressed in mammalian expression system assessed as residual activity at 50 nM by KINOMEscan assay relative to control; details: read-out: Activity
[13] = target: Ephrin type-B receptor 3 (Homo sapiens) (UniProt P54753); experiment: Inhibition of wild-type human partial length EPHB3 (Q599 to T928 residues) expressed in bacterial expression system assessed as residual activity at 50 nM by Kinomescan method relative to control
[14] = target: Membrane-associated tyrosine- and threonine-specific cdc2-inhibitory kinase (Homo sapiens) (UniProt Q99640); experiment: Inhibition of wild-type human partial length MYT1 (A88 to G366 residues) expressed in bacterial expression system assessed as residual activity at 50 nM by Kinomescan method relative to control
[15] = target: Serine/threonine-protein kinase MARK1 (Homo sapiens) (UniProt Q9P0L2); experiment: Inhibition of wild-type human partial length MARK1 (Q30 to T341 residues) expressed in bacterial expression system assessed as residual activity at 50 nM by Kinomescan method relative to control
[16] = target: Mitogen-activated protein kinase kinase kinase 6 (Homo sapiens) (UniProt O95382); experiment: Inhibition of wild-type human partial length MAP3K6 (M278 to R972 residues) expressed in mammalian expression system assessed as residual activity at 50 nM by Kinomescan method relative to control
Sequence of Mitogen-activated protein kinase kinase kinase 6 (Homo sapiens) (O95382 whole entry, the tested form may be a part, canonical isoform): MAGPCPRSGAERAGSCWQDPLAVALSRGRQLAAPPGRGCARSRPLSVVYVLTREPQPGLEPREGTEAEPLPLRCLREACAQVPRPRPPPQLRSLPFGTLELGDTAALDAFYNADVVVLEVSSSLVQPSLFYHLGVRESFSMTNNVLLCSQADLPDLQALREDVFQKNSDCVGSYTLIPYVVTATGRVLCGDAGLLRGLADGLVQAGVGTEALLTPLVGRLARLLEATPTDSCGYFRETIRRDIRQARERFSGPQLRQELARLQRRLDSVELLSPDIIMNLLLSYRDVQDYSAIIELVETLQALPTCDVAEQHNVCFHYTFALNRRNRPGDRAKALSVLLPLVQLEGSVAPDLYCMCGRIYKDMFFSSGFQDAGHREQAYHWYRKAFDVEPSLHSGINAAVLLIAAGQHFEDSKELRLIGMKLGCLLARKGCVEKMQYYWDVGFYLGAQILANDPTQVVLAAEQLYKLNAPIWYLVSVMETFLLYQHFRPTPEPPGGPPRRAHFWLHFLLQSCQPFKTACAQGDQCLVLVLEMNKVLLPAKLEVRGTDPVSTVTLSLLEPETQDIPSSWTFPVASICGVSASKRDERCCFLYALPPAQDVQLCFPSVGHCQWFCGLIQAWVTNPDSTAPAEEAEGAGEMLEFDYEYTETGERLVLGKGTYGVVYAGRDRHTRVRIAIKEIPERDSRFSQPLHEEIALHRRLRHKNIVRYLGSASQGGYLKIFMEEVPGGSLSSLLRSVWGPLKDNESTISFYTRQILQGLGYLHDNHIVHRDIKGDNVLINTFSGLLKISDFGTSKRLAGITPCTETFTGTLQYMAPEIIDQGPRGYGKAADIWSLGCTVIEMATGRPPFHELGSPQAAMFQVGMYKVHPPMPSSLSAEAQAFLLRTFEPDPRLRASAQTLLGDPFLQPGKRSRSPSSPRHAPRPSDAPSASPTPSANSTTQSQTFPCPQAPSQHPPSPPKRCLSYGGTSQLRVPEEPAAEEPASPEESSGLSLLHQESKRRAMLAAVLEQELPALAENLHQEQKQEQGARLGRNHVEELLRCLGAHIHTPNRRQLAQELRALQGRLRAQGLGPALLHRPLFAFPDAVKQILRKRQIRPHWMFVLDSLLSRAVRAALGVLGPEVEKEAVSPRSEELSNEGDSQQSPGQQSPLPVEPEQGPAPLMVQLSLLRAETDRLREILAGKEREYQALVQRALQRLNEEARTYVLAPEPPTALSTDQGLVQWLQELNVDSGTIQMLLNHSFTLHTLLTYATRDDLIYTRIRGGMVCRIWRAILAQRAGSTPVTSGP

[17] = target: Phosphatidylinositol 4,5-bisphosphate 3-kinase catalytic subunit delta isoform (Homo sapiens) (UniProt O00329); experiment: Inhibition of wild-type human partial length PIK3CD (R108 to Q1044 residues) expressed in mammalian expression system assessed as residual activity at 50 nM by Kinomescan method relative to control
[18] = target: Ephrin type-B receptor 6 (Homo sapiens) (UniProt O15197); experiment: Inhibition of wild-type human partial length EPHB6 (Q634 to P948 residues) expressed in mammalian expression system assessed as residual activity at 50 nM by Kinomescan method relative to control
[19] = target: Serine/threonine-protein kinase PRP4 homolog (Homo sapiens) (UniProt Q13523); experiment: Inhibition of wild-type human partial length PRP4 (D657 to I1007 residues) expressed in bacterial expression system assessed as residual activity at 50 nM by Kinomescan method relative to control
[20] = target: Dual specificity testis-specific protein kinase 1 (Homo sapiens) (UniProt Q15569); experiment: Inhibition of wild-type human full length TESK1 (R37 to S626 residues) expressed in bacterial expression system assessed as residual activity at 50 nM by Kinomescan method relative to control
[21] = target: Citron Rho-interacting kinase (Homo sapiens) (UniProt O14578); experiment: Inhibition of wild-type human partial length CRIK (M68 to E432 residues) expressed in bacterial expression system assessed as residual activity at 50 nM by Kinomescan method relative to control
Sequence of Citron Rho-interacting kinase (Homo sapiens) (O14578 whole entry, the tested form may be a part, canonical isoform): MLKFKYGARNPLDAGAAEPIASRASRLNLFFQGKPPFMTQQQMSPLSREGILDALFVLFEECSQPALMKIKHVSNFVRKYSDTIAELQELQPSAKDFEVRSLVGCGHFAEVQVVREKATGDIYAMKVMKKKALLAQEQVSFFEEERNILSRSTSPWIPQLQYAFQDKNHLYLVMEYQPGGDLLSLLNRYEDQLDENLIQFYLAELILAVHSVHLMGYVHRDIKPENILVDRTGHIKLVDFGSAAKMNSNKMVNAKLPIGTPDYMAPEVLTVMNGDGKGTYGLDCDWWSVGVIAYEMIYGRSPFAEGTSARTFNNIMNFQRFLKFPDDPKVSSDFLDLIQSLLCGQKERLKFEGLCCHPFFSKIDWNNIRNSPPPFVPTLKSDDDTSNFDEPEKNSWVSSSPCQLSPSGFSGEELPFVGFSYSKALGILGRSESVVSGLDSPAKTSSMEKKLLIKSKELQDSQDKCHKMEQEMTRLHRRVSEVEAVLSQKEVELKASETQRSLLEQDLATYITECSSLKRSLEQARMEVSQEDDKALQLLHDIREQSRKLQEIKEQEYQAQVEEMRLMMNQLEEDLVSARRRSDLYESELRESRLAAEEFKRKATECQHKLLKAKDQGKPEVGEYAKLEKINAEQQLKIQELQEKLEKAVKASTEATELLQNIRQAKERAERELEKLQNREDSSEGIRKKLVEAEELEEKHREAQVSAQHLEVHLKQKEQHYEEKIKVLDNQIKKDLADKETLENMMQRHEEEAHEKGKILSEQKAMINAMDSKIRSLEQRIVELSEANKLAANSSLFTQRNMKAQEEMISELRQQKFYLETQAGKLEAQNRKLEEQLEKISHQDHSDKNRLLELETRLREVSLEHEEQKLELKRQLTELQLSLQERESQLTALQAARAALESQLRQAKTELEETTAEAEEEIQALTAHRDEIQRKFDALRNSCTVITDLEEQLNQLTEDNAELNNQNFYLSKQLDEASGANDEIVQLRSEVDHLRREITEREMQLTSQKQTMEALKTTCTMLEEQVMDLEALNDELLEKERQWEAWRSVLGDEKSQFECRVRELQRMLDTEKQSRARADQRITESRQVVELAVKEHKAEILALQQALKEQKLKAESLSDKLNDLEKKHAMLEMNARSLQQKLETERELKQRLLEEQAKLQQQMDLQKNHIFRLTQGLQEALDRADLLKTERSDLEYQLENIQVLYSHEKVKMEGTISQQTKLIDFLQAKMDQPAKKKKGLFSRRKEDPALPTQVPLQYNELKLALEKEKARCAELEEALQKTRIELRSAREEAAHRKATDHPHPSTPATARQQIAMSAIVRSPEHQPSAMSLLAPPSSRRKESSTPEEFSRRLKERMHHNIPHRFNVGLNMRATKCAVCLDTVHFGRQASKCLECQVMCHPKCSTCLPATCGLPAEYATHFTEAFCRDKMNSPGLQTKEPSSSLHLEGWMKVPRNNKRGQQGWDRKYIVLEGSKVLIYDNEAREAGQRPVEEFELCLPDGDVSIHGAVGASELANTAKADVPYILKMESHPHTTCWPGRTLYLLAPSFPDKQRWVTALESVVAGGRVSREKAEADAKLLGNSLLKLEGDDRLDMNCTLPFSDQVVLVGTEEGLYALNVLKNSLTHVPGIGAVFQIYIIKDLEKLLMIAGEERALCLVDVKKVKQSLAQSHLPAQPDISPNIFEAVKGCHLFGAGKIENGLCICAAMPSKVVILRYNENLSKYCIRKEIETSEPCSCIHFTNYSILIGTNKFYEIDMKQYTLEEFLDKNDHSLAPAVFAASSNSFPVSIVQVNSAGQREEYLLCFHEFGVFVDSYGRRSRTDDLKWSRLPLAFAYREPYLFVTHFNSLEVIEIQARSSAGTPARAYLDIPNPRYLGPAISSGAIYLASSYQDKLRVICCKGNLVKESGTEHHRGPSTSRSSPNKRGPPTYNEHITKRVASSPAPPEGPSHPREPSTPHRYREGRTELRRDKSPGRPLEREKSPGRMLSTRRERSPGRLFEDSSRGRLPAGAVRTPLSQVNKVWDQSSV

[22] = test system: Phosphatidylinositol 4,5-bisphosphate 3-kinase catalytic subunit alpha isoform (Homo sapiens), P42336 [Q546K]; experiment: Inhibition of human partial length PIK3CA Q546K mutant (R108 to N1068 residues) expressed in mammalian expression system assessed as residual activity at 50 nM by Kinomescan method relative to control
[23] = target: Myosin light chain kinase 2, skeletal/cardiac muscle (Homo sapiens) (UniProt Q9H1R3); experiment: Inhibition of wild-type human partial length SKMLCK (D258 to K570 residues) expressed in bacterial expression system assessed as residual activity at 50 nM by Kinomescan method relative to control

| SMILES | Activity [1] | Activity [2] | Activity [3] | Activity [4] | Activity [5] | Activity [6] | Activity [7] | Activity [8] | Activity [9] | Activity [10] | Activity [11] | Activity [12] | activity at 0.05 µM (JAK2) | Activity [13] | Activity [14] | Activity [15] | Activity [16] | Activity [17] | Activity [18] | Activity [19] | further results |
| --- | --- | --- | --- | --- | --- | --- | --- | --- | --- | --- | --- | --- | --- | --- | --- | --- | --- | --- | --- | --- | --- |
| CC1(C)[C@H](Nc2c(C(N)=O)cnn3cc(-c4ccccc4)cc23)CC[C@]1(C)N | 100% | 48% | 100% | 100% | 100% | 37% | 100% | 96% | 93% | 100% | 100% | 36% | 3.9% | 100% | 79% | 99% | 56% | 44% | 66% | 95% | Activity [20]: 100%; Activity [21]: 100%; Activity [22]: 84%; Activity [23]: 90% |
| COc1ccc(-c2cc3c(N[C@@H]4CC[C@](C)(N)C4(C)C)c(C(N)=O)cnn3c2)cn1 | 98% | 73% | 95% | 100% | 100% | 62% | 100% | 73% | 100% | 97% | 100% | 63% | 17% | 100% | 100% | 91% | 93% | 100% | 86% | 97% | Activity [20]: 84%; Activity [21]: 100%; Activity [22]: 100%; Activity [23]: 100% |
